Values joined by “and” are separate entries in the source; they are usually repeats but may differ in a detail not shown here. Equal entries are not always repeated. Where two headings read alike, the source gives them in different places.
How the values were obtained:
All isolates (n = 80) = assay: MIC profile of EDTA, all tested isolates; assay type: cell-based, Gram-negative clinical isolates
Method: (§1) Objective: The in-vitro activity of ethylenediaminetetraacetic acid (EDTA) was tested in cation-adjusted Mueller Hinton broth (CA-MHB) and MHB against a panel of Gram-negative clinical isolates from India.
(§2) Method: A total of 80 isolates including ATCC strains and non-duplicate clinically relevant Escherichia coli (n=20), Klebsiella pneumoniae (n=20), Pseudomonas aeruginosa (n=21) and Acinetobacter baumannii (n=19) characterized isolates were selected prior to susceptibility testing. The clinical isolates were collected from hospitalized patients from tertiary care medical centers in India. Isolates were tested for susceptibility to different test concentrations of EDTA (1.25, 2.5, 5, 10, 20, 40, 80 mM) in CA-MHB media and MHB by broth microdilution.

Enterobacterales = assay: MIC profile of EDTA, Enterobacterales; assay type: cell-based; conditions: n = 40
Method: as §1, §2

E. coli = assay: MIC profile of EDTA, E. coli; assay type: cell-based, Escherichia coli; conditions: for MIC50 / MIC90 / MIC: Escherichia coli, n = 20
Method: as §1, §2

K. pneumoniae [1] = assay: MIC profile of EDTA, K. pneumoniae; assay type: cell-based, Klebsiella pneumoniae
Method: as §1, §2

Non-fermenters = assay: MIC profile of EDTA, non-fermenters; assay type: cell-based; conditions: n = 40; for MIC: CA-MHB
Method: as §1, §2

A. baumannii = assay: MIC profile of EDTA, A. baumannii; assay type: cell-based, Acinetobacter baumannii
Method: as §1, §2

P. aeruginosa [2] = assay: MIC profile of EDTA, P. aeruginosa; assay type: cell-based, Pseudomonas aeruginosa; conditions: for MIC: CA-MHB
Method: as §1, §2

[3] = test system: all grouped isolates from India; assay: MIC by broth microdilution against all grouped isolates from India; assay type: cell-based, resistant bacterial strains
Method: (§3) In a typical study MIC tests were performed by broth microdilution in line with CLSI susceptibility testing standards. Bacterial inocula were prepared at ca. 1×10^6 CFU/mL by diluting 100-fold a 0.5 McFarland suspension in CA-MHB with TES. Microtiter plate wells containing 50 μL of antibacterial solutions at 2×the final concentrations were diluted 2-fold with 50 μL of inoculum to give a final inoculum of ca. 5×10^5 CFU/mL and desired test concentrations of antibacterial agents. Test microtiter plates were incubated according to CLSI guidelines and read visually. MIC values corresponded to the first well with no visible growth.
There was a marked improvement in antibacterial activity, compared to MEM alone, observed for the triple combinations, for MEM/AVI [4 mg/L]/EDTA [10 mM] and MEM/AVI [4 mg/L]/EDTA [20 mM], the reduction in MIC90 was 0.06 μg/mL and ≤0.002 μg/mL, respectively.

[4] = test system: Enterobacterales isolates from India; assay: MIC by broth microdilution against Enterobacterales; assay type: cell-based, Enterobacteriaceae; conditions: n=301
Method: as §3
The results of antibacterial activity of amikacin, Ceftazidime-avibactam, Ceftriaxone with sulbactam and EDTA, Meropenem and Meropenem with avibactam and EDTA against highly resistant strains of Enterobacteriaceae are given in Table 2.

Escherichia coli = assay: MIC by broth microdilution against E. coli; assay type: cell-based; conditions: Escherichia coli, highly resistant strains
Method: as §3
The results of antibacterial activity of amikacin, Ceftazidime-avibactam, Ceftriaxone with sulbactam and EDTA, Meropenem and Meropenem with avibactam and EDTA against highly resistant strains of Escherichia coli are given in Table 3. […] There was a marked improvement in antibacterial activity, compared to MEM alone, observed for the triple combination MEM/AVI [4 mg/L]/EDTA [10 mM] with a MIC90 at 0.004 μg/mL

K. pneumoniae [5] = assay: MIC by broth microdilution against Klebsiella; assay type: cell-based, Klebsiella pneumoniae; conditions: highly resistant strains
Method: as §3
The results of antibacterial activity of amikacin, Ceftazidime-avibactam, Ceftriaxone with sulbactam and EDTA, Meropenem and Meropenem with avibactam and EDTA against highly resistant strains of Klebsiella (93. 3% Mem NS) are given in Table 4.

[6] = test system: Non-Enterobacteriaceae (non-fermenter isolates); assay: MIC by broth microdilution against Non-Enterobacteriaceae; assay type: cell-based
Method: as §3

P. aeruginosa [7] = assay: MIC by broth microdilution against P. aeruginosa; assay type: cell-based, Pseudomonas aeruginosa; conditions: Pseudomonas aeruginosa, highly resistant strains
Method: as §3
The results of antibacterial activity of amikacin, Ceftazidime-avibactam, Ceftriaxone with sulbactam and EDTA, Meropenem and Meropenem with avibactum and EDTA against highly resistant strains of P. aeruginosa are given in Table 5. As may be seen, the activity of the comparators was much lower although CRO/S4/E10 maximum MIC90 were much lower at ≤0.03 μg/mL.

Acinetobacter baumannii = assay: MIC by broth microdilution against Acinetobacter baumannii; assay type: cell-based
Method: as §3
The results of antibacterial activity of amikacin, Ceftazidime-avibactam, Ceftriaxone with sulbactam and EDTA, Meropenem and Meropenem with avibactum and EDTA against highly resistant strains of Acinetobacter baumannii are given in Table 7.

[8] = test system: Stenotrophomonas maltophilia; assay: MIC by broth microdilution against Stenotrophomonas maltophilia; assay type: cell-based; conditions: Stenotrophomonas maltophilia, highly resistant strains
Method: as §3
The results of antibacterial activity of amikacin, Ceftazidime-avibactam, Ceftriaxone with sulbactam and EDTA, Meropenem and Meropenem with avibactum and EDTA against highly resistant strains of Stenotrophomonas maltophilia are given in Table 8.

O=C(O)CN(CCN(CC(=O)O)CC(=O)O)CC(=O)O [EDTA, N,N′-(Ethane-1,2-diyl)bis[N-(carboxymethyl)glycine]]
≤ 1.25 mM: MIC (All isolates (n = 80); CA-MHB, read-out: MIC MIN) | MIC (Enterobacterales; MHB, read-out: MIC MIN) | MIC (E. coli; MHB, read-out: MIC MIN) | MIC (Non-fermenters; read-out: MIC MIN) | MIC (A. baumannii; Acinetobacter baumannii, read-out: MICs) | MIC50 (A. baumannii; Acinetobacter baumannii, CA-MHB, n = 19, read-out: MIC50) | MIC90 (A. baumannii; Acinetobacter baumannii, CA-MHB, n = 19, read-out: MIC90) | MIC (A. baumannii; Acinetobacter baumannii, CA-MHB, n = 19, read-out: MIC MAX) | MIC (A. baumannii; Acinetobacter baumannii, CA-MHB, n = 19, read-out: MIC MIN) | MIC (P. aeruginosa [2]; Pseudomonas aeruginosa, n = 21, read-out: MIC MIN)
10 mM: MIC50 (All isolates (n = 80); CA-MHB) | MIC50 (Enterobacterales; MHB) | MIC50 (E. coli; CA-MHB) | MIC50 (P. aeruginosa [2]; MHB, n = 21) | MIC50 (P. aeruginosa [2]; Pseudomonas aeruginosa)
40 mM: MIC50 (Enterobacterales; CA-MHB)
5 mM: MIC (K. pneumoniae [1]; Klebsiella pneumoniae, MHB, n = 20, read-out: MIC MIN)
4 fold: MIC50 and MIC90 in MHB, fold lower to CA-MHB (E. coli; MHB vs CA-MHB)
almost similar to CA-MHB: MIC in MHB compared to CA-MHB (K. pneumoniae [1]; MHB vs CA-MHB)
2.5 mM: MIC50 (All isolates (n = 80); MHB) | MIC (Enterobacterales; CA-MHB, read-out: MIC MIN) | MIC (E. coli; CA-MHB, read-out: MIC MIN) | MIC50 (E. coli; MHB)
≤1.25 mM: MIC MIN (All isolates (n = 80); MHB) | MIC MIN (Non-fermenters; MHB) | MIC50 (A. baumannii; MHB, n = 19) | MIC90 (A. baumannii; MHB, n = 19) | MIC MAX (A. baumannii; MHB, n = 19) | MIC MIN (A. baumannii; MHB, n = 19) | MIC MIN (P. aeruginosa [2]; MHB, n = 21)
> 80 mM and >80 mM: MIC90 (All isolates (n = 80); CA-MHB) | MIC90 (Enterobacterales; CA-MHB)
80 mM: MIC90 (All isolates (n = 80); MHB) | MIC90 (Enterobacterales; MHB) | MIC90 (E. coli; CA-MHB) | MIC (E. coli; MHB, read-out: MIC MAX) | MIC50 (K. pneumoniae [1]; Klebsiella pneumoniae) | MIC90 (K. pneumoniae [1]; Klebsiella pneumoniae, MHB, n = 20) | MIC50 (K. pneumoniae [1]; MHB, n = 20)
>80 mM: MIC MAX (All isolates (n = 80); MHB) | MIC90 (K. pneumoniae [1]; CA-MHB, n = 20)
> 80 mM: MIC (All isolates (n = 80); CA-MHB, read-out: MIC MAX) | MIC (Enterobacterales; CA-MHB, read-out: MIC MAX) | MIC (Enterobacterales; MHB, read-out: MIC MAX) | MIC (E. coli; CA-MHB, read-out: MIC MAX) | MIC90 (K. pneumoniae [1]; Klebsiella pneumoniae, CA-MHB, n = 20) | MIC (K. pneumoniae [1]; Klebsiella pneumoniae, CA-MHB, n = 20, read-out: MIC MAX) | MIC (K. pneumoniae [1]; Klebsiella pneumoniae, MHB, n = 20, read-out: MIC MAX)
20 mM: MIC90 (E. coli; MHB) | MIC (K. pneumoniae [1]; Klebsiella pneumoniae, CA-MHB, n = 20, read-out: MIC MIN) | MIC (Non-fermenters; read-out: MIC MAX) | MIC MAX (Non-fermenters; MHB) | MIC90 (P. aeruginosa [2]; MHB, n = 21) | MIC MAX (P. aeruginosa [2]; MHB, n = 21) | MIC90 (P. aeruginosa [2]; Pseudomonas aeruginosa) | MIC (P. aeruginosa [2]; Pseudomonas aeruginosa, n = 21, read-out: MIC MAX)

NCC[C@H](O)C(=O)N[C@@H]1C[C@H](N)[C@@H](O[C@H]2O[C@H](CN)[C@@H](O)[C@H](O)[C@H]2O)[C@H](O)[C@H]1O[C@H]1O[C@H](CO)[C@@H](O)[C@H](N)[C@H]1O [Amikacin]
>64 µg/mL: MIC90 [4] | MIC90 (K. pneumoniae [5]) | MIC90 ([6]; highly resistant strains) | MIC90 (Acinetobacter baumannii; highly resistant strains)
8 µg/mL: MIC50 (Escherichia coli; read-out: MIC50)
> 64 µg/mL: MIC50 [3] | MIC90 [3] | MIC90 ([3]; all grouped isolates (606)) | MIC50 ([4]; read-out: MIC50) | MIC90 ([4]; read-out: MIC90) | MIC90 (Escherichia coli; read-out: MIC90) | MIC50 (K. pneumoniae [5]; Klebsiella pneumoniae, read-out: MIC50) | MIC90 (K. pneumoniae [5]; Klebsiella pneumoniae, read-out: MIC90) | MIC50 [6] | MIC90 [6] | MIC50 (P. aeruginosa [7]) | MIC90 (P. aeruginosa [7]; read-out: MIC90) | MIC90 (Acinetobacter baumannii; Acinetobacter baumannii) | MIC50 (Acinetobacter baumannii; Acinetobacter baumannii, highly resistant strains) | MIC50 ([8]; read-out: MIC50) | MIC90 ([8]; read-out: MIC90)
